Measurements reported in PubChem BioAssay AID1963827 (Molecular Pharmacology Branch, DTP, NCI, 2024).

Tested on: 994946-033-R-J1-PDC complex spheroid viability
Assay: Anticancer human tumor 994946-033-R-J1-PDC patient-derived melanoma cell line growth inhibition [POLQ]
Settings: for IC50: curve of first compound; for viability, T/C: stronger effect = lower value
Procedure, shortened: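 Three-cell-type spheroids modelling solid tumor plus stroma served as the readout system; POL inhibitors were tested individually and in combination, concentration ranges set by clinical Cmax where known.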

[1] = second compound 0.0316 µM, first compound 0.0316 µM
[2] = second compound 0.0316 µM, first compound 0.1 µM
[3] = second compound 0.0316 µM, first compound 0.316 µM
[4] = second compound 0.0316 µM, first compound 1 µM
[5] = second compound 0.1 µM, first compound 0.0316 µM
[6] = second compound 0.1 µM, first compound 0.1 µM
[7] = second compound 0.1 µM, first compound 0.316 µM
[8] = second compound 0.1 µM, first compound 1 µM
[9] = second compound 0.316 µM, first compound 0.0316 µM
[10] = second compound 0.316 µM, first compound 0.1 µM
[11] = second compound 0.316 µM, first compound 0.316 µM
[12] = second compound 0.316 µM, first compound 1 µM
[13] = second compound 1 µM, first compound 0.0316 µM
[14] = second compound 1 µM, first compound 0.1 µM
[15] = second compound 1 µM, first compound 0.316 µM
[16] = second compound 1 µM, first compound 1 µM
[17] = second compound 3.16 µM, first compound 0.0316 µM
[18] = second compound 3.16 µM, first compound 0.1 µM
[19] = second compound 3.16 µM, first compound 0.316 µM
[20] = second compound 3.16 µM, first compound 1 µM
[21] = second compound 10 µM, first compound 0.0316 µM
[22] = second compound 10 µM, first compound 0.1 µM
[23] = second compound 10 µM, first compound 0.316 µM
[24] = second compound 10 µM, first compound 1 µM
[25] = second compound 0.0316 µM, first compound 3.16 µM
[26] = second compound 0.0316 µM, first compound 10 µM
[27] = second compound 0.1 µM, first compound 3.16 µM
[28] = second compound 0.1 µM, first compound 10 µM
[29] = second compound 0.316 µM, first compound 3.16 µM
[30] = second compound 0.316 µM, first compound 10 µM
[31] = second compound 1 µM, first compound 3.16 µM
[32] = second compound 1 µM, first compound 10 µM
[33] = second compound 3.16 µM, first compound 3.16 µM
[34] = second compound 3.16 µM, first compound 10 µM
[35] = second compound 10 µM, first compound 3.16 µM
[36] = second compound 10 µM, first compound 10 µM
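Also: spheroids exposed to drugs for 7 days.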
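For viability, T/C in this document: 100% = DMSO vehicle treated spheroids.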

COc1cccc(OCCCN)c1-c1cc(Nc2cnc(C#N)cn2)n[nH]1 + COC1C(OC(N)=O)C(O)C(Oc2ccc3c(O)c(NC(=O)c4ccc(O)c(CC=C(C)C)c4)c(=O)oc3c2C)OC1(C)C
IC50 (second compound 0.0316 µM): 18.8 nM | IC50 (second compound 0.1 µM): 14.3 nM | IC50 (second compound 0.316 µM): 12.1 nM | IC50 (second compound 1 µM): 5.63 nM | IC50 (second compound 3.16 µM): 17.2 nM | IC50 (second compound 10 µM): 4.49 nM | viability, T/C (second compound 0.0316 µM, first compound 0.00316 µM): 73.9% | viability, T/C (second compound 0.0316 µM, first compound 0.01 µM): 69.9% | viability, T/C [1]: 32.6% | viability, T/C [2]: 24.9% | viability, T/C [3]: 13.1% | viability, T/C [4]: 9.24% | viability, T/C (second compound 0.1 µM, first compound 0.00316 µM): 84.2% | viability, T/C (second compound 0.1 µM, first compound 0.01 µM): 60.2% | viability, T/C [5]: 27.5% | viability, T/C [6]: 14.4% | viability, T/C [7]: 22% | viability, T/C [8]: 11.6% | viability, T/C (second compound 0.316 µM, first compound 0.00316 µM): 84.3% | viability, T/C (second compound 0.316 µM, first compound 0.01 µM): 52.7% | viability, T/C [9]: 34.9% | viability, T/C [10]: 11% | viability, T/C [11]: 26.5% | viability, T/C [12]: 18.1% | viability, T/C (second compound 1 µM, first compound 0.00316 µM): 57.6% | viability, T/C (second compound 1 µM, first compound 0.01 µM): 42.3% | viability, T/C [13]: 25.7% | viability, T/C [14]: 17.3% | viability, T/C [15]: 30.8% | viability, T/C [16]: 13.8% | viability, T/C (second compound 3.16 µM, first compound 0.00316 µM): 85.8% | viability, T/C (second compound 3.16 µM, first compound 0.01 µM): 54.5% | viability, T/C [17]: 38.7% | viability, T/C [18]: 32.7% | viability, T/C [19]: 19.7% | viability, T/C [20]: 9.09% | viability, T/C (second compound 10 µM, first compound 0.00316 µM): 56.9% | viability, T/C (second compound 10 µM, first compound 0.01 µM): 34.2% | viability, T/C [21]: 18.9% | viability, T/C [22]: 21.2% | viability, T/C [23]: 20.2% | viability, T/C [24]: 17.5%

CC1COCCN1c1cc(C2(S(C)(=N)=O)CC2)nc(-c2ccnc3[nH]ccc23)n1 (stereo unspecified) + Nc1ccc(C#CCN(C(=O)Cc2ncc(C(F)(F)F)cc2C(F)(F)F)c2ccc(F)cc2)nn1
IC50 (second compound 0.0316 µM): 2250 nM | IC50 (second compound 0.1 µM): 5700 nM | IC50 (second compound 0.316 µM): 2000 nM | IC50 (second compound 1 µM): 2540 nM | IC50 (second compound 3.16 µM): 5120 nM | IC50 (second compound 10 µM): > 10000 nM | viability, T/C [1]: 91.6% | viability, T/C [2]: 93% | viability, T/C [3]: 76.2% | viability, T/C [4]: 74.6% | viability, T/C [25]: 37.4% | viability, T/C [26]: 42.1% | viability, T/C [5]: 127% | viability, T/C [6]: 135% | viability, T/C [7]: 95% | viability, T/C [8]: 72.4% | viability, T/C [27]: 68.5% | viability, T/C [28]: 37.9% | viability, T/C [9]: 104% | viability, T/C [10]: 86.5% | viability, T/C [11]: 109% | viability, T/C [12]: 59.4% | viability, T/C [29]: 47.9% | viability, T/C [30]: 39.5% | viability, T/C [13]: 124% | viability, T/C [14]: 127% | viability, T/C [15]: 90.3% | viability, T/C [16]: 63% | viability, T/C [31]: 51.3% | viability, T/C [32]: 40% | viability, T/C [17]: 113% | viability, T/C [18]: 110% | viability, T/C [19]: 113% | viability, T/C [20]: 85% | viability, T/C [33]: 70.3% | viability, T/C [34]: 25.3% | viability, T/C [21]: 127% | viability, T/C [22]: 102% | viability, T/C [23]: 108% | viability, T/C [24]: 71.2% | viability, T/C [35]: 67.6% | viability, T/C [36]: 49.9%

COc1ccc([C@@H](O)c2cc(-c3ncnc4cc(N5CCOCC5)ccc34)c(F)cc2Cl)nn1 + Nc1ccc(C#CCN(C(=O)Cc2ncc(C(F)(F)F)cc2C(F)(F)F)c2ccc(F)cc2)nn1
IC50 (second compound 0.0316 µM): 4980 nM | IC50 (second compound 0.1 µM): 6830 nM | IC50 (second compound 0.316 µM): 3130 nM | IC50 (second compound 1 µM): > 10000 nM | IC50 (second compound 3.16 µM): 7070 nM | IC50 (second compound 10 µM): 4520 nM | viability, T/C [1]: 90.3% | viability, T/C [2]: 114% | viability, T/C [3]: 75.5% | viability, T/C [4]: 89% | viability, T/C [25]: 52.8% | viability, T/C [26]: 45.2% | viability, T/C [5]: 91.6% | viability, T/C [6]: 112% | viability, T/C [7]: 99.4% | viability, T/C [8]: 98.7% | viability, T/C [27]: 62% | viability, T/C [28]: 44.1% | viability, T/C [9]: 93.3% | viability, T/C [10]: 111% | viability, T/C [11]: 116% | viability, T/C [12]: 90.6% | viability, T/C [29]: 50.7% | viability, T/C [30]: 37.3% | viability, T/C [13]: 114% | viability, T/C [14]: 117% | viability, T/C [15]: 115% | viability, T/C [16]: 61.4% | viability, T/C [31]: 64.5% | viability, T/C [32]: 55.1% | viability, T/C [17]: 109% | viability, T/C [18]: 87% | viability, T/C [19]: 102% | viability, T/C [20]: 91.3% | viability, T/C [33]: 67.5% | viability, T/C [34]: 42.5% | viability, T/C [21]: 116% | viability, T/C [22]: 126% | viability, T/C [23]: 102% | viability, T/C [24]: 75.7% | viability, T/C [35]: 62.2% | viability, T/C [36]: 34%
